In patent US20240315992A1, “AMINOXY ACID-BASED ANTIBACTERIAL COMPOUNDS AND METHODS THEREOF” (The University of Hong Kong, priority 2023, published 2024):
≈ marks a conversion by molar mass, not a printed value.

What was measured:
Format in all cases: cell-based
MSSA ATCC 6538 = assay: MIC by CLSI broth micro-dilution, MSSA ATCC 6538; conditions: Staphylococcus aureus, read-out: Minimum inhibitory concentration
Method: Aminoxy acids were synthesized by the standard peptide coupling procedures. Minimum inhibitory concentration was determined using CLSI broth micro-dilution method in 96-wells microtitre plates. Minimum inhibitory concentration is defined as the lowest concentration of the compound that inhibits visible growth of the bacteria. All experiments were performed three times. 24 compounds including aminoxy acid monomers and dipeptides have been identified to show toxicity against multidrug resistant Staphylococcus aureus Mu3 and summarized in Table 1. The minimum inhibitory concentration of compound 8 and compound 35 on other gram-positive bacteria was also evaluated and summarized in Table 2. […] As shown in FIGS. 3A-3B there are no observable hemolysis for compound 8 and compound 35 towards human red blood cell.
Bacteria were streaked from the glycerol stock into BHI agar and were incubated overnight. Single colony was picked for the overnight culture in cation-adjusted Mueller Hinton broth (CAMH), LB or BHI. The overnight culture was sub-cultured and regrew to exponential phase for the experiment.
MIC was determined by CLSI broth micro-dilution method in 96-wells microtitre plates. […] Optical density was recorded by DTX 880 multimode detector (Beckman Coulter, California, US). […]

NIH3T3 cells = assay: Mammalian cell cytotoxicity assay (MTT), NIH3T3; conditions: for IC50: Mus musculus, NIH3T3, MTT assay, 24 hours, read-out: IC50, toxicity towards mammalian cells NIH3T3; for toxicity against mammalian cell NIH3T3: at 16 folded MIC (50 μM compound 8, 12.5 μM compound 35)
Method: NIH3T3 cells were cultured in DMEM supplemented with 10% fetal bovine serum (FBS), 100 U/ml penicillin and 0.1 mg/ml streptomycin. Cells were grown in treated culture flasks at 37° C. in a 5% CO2 humidified incubator and passaged every 2-3 days.
In the treated culture dish, cells were washed by PBS and then trypsinized. DMEM was added to quench the reaction. Cells were centrifuged and resuspended into fresh DMEM. Cells were then seeded in 96-well microtitre plate (100 μL, 5000 cells per well) for 24 hours before addition of compounds. The compounds were two-fold serial diluted by DMSO in a DMSO-compatible 96-well plate. 1 μL of compound in DMSO is transferred into the 96-well microtitre preparation plate containing 100 μL DMEM medium. The medium in culture plate was removed and compounds in preparation plate were transferred to culture plate. Equal volume of DMSO was used as negative control.
After 24 hours of incubation of cells, cell viability was measured by MTT assay. In MTT assay, 20 μL 5 mg/mL MTT solution in PBS was added to cell medium and cultured for 3 hours. The medium was then removed and 50 μL DMSO was added and cultured for 10 minutes. Absorbance at 595 nm was measured spectrophotometrically (Beckman Coulter DTX 880 Multimode Detector) and normalized to DMSO group. Biological replicates were performed.

[1] = tested on: Staphylococcus aureus ATCC 35556 biofilm formation; assay: Inhibition of biofilm formation (crystal violet); conditions: 24 hours treatment, also sub-inhibitory concentration
Method: Staphylococcus aureus ATCC 35556 was treated with various concentrations of compound 8, compound 35 or 1% DMSO as negative control for 24 hours. Biofilm was quantified using crystal violet. The data were normalized to DMSO (100% biofilm) and represent average values±S.D. (n=9 per group). Statistical analysis was performed by ANOVA with Dunnett's post-test to calculate p-values adjusted for multiple comparisons with DMSO as control condition (*p<0.05; **p<0.01; ***p<0.001).
Briefly, overnight cultures of Staphylococcus aureus ATCC 35556 in Tryptic Soy Broth (TSB) were sub-cultured from an overnight culture 1:100 for 2.5 hours. The bacteria were diluted 1:100 into fresh TSB and 200 μL bacteria in TSB was added to each well of a flat-bottomed 96-well plate (200 μL/well). Compounds (two-fold serial dilutions; final DMSO concentration of maximum 1%) were added. Plates were incubated at 37° C. for 24 hours. After 24 hours, the supernatant was removed and washed by PBS (200 μL) 2 times. Biofilms were dried at 37° C. for 30 minutes. 1% Crystal violet (25% ethanol in H2O) was diluted 1:5 in PBS and 200 μL was added to each well, followed by incubation at room temperature for 10 minutes. […] Following a 1:4 dilution step (33% acetic acid), optical density was measured at 595 nm by Beckman Coulter DTX 880 Multimode Detector. […]

[2] = tested on: Staphylococcus aureus ATCC 29213; assay: Scanning and transmission electron microscopy; conditions: 24 hours treatment, SEM and TEM
Method: FIGS. 16A-16B are the images showing the compound 8 and compound 35 can induced the cell burst of Staphylococcus aureus. (FIG. 16A) Cells are imaged under scanning electron microscope. (FIG. 16B) Cells are imaged under transmission electron microscope.
Briefly, an overnight culture of Staphylococcus aureus ATCC 29213 was sub-cultured 1:100 in fresh CAMH and regrown for 2 hours. Then the bacteria were treated with compound or DMSO negative control for 24 hours. The bacterial pellet was resuspended in PBS and loaded on 0.22 μm filter membrane. The bacteria were fixed on the membrane by 2.5% glutaraldehyde for overnight at 4° C. The filter membranes were washed by PBS and subsequently dehydrated using ethanol as shown below.
The samples were submitted to HKU Electron Microscope Unit (EMU) for critical point drying, mounting and coating of the specimens. Samples were then observed using LEO 1530 FEG Scanning Electron Microscope.
Briefly, an overnight culture of Staphylococcus aureus ATCC 29213 was sub-cultured 1:100 in fresh CAMH and regrown for 2 hours. Then the bacteria were treated with compound or negative control DMSO for 24 hours. The bacterial pellet was then washed by PBS and fixed in cacodylate buffer (0.1 M sodium cacodylate-HCl buffer pH 7.4) for 1 hour at 4° C. […]

| SMILES | MIC (MSSA ATCC 6538) [µM] | IC50 (NIH3T3 cells) [µM] | toxicity against mammalian cell NIH3T3 (NIH3T3 cells) | formation of the Staphylococcus aureus biofilm [1] | cell morphology under electron microscope [2] |
| --- | --- | --- | --- | --- | --- |
| CC(C)C[C@H](ONC(=O)[C@@H](COCc1ccccc1)ONC(=O)c1cc(C(F)(F)F)cc(C(F)(F)F)c1)C(=O)Nc1ccc2c(c1)OC(F)(F)O2 [Compound 35] | 1.56 (≈ 1.15 µg/mL) | > 50 | minimal toxicity | significantly inhibited the formation of the Staphylococcus aureus biofilm even under sub-inhibitory concentration | severe cell abnormality including cell burst and irregular shape of cell wall |
| CC(C)C[C@H](ONC(=O)[C@@H](COCc1ccccc1)ONC(=O)c1cc(C(F)(F)F)cc(C(F)(F)F)c1)C(=O)Nc1ccccc1 [Compound 8] | 3.13 (≈ 2.05 µg/mL) | > 50 | minimal toxicity | significantly inhibited the formation of the Staphylococcus aureus biofilm even under sub-inhibitory concentration | severe cell abnormality including cell burst and irregular shape of cell wall |
